Data on 3 molecules can be found in patent publication US20120022121A1, “INDOLES, DERIVATIVES AND ANALOGS THEREOF AND USES THEREFOR” (priority 2007, published 2012).

“Also recorded” adds a separate entry of the source.

The test system of one series is Bcl-2. Nature of the series: Western blot of Bcl-2 phosphorylation. The series is classed as cell-based, human. As to conditions: PC-3 cells, 24 h, immunoblot of pBcl-2. As for the experimental part:
Treated cells were lysed in cold lysis buffer (20 mM Tris-HCl, pH 7.5, 150 mM NaCl, 1 mM Na2 EDTA, 1% Triton x-100, and freshly added Na3VO4 (2 mM), NaF (20 mM) and complete protease inhibitor cocktail). For each sample, an aliquot (20 to 40 μg) of total protein was loaded and run on a SDS-Page gel. Protein was transferred to nitrocellulose membranes (Bio-Rad Laboratories, Hercules, Calif.), blocked with 5% non-fat milk, incubated with primary antibody overnight at 4° C., and then incubated with secondary antibody at rt for 1 h. ECL™ (GE Healthcare Bio-Sciences Corp., Piscataway, N.J.) was used for detection. The band intensity was measured by densitometry using TotalLab TL100 Software v2006 (Nonlinear Dynamics Ltd., Newcastle upon Tyne, UK).
For orientation: In western blotting, separated proteins are transferred to a membrane and probed.

Another series deals with PC-3 cells. Nature of the series: Cell cycle analysis (PI staining, FACS). The format is cell-based, human. As to conditions: for EC50: Homo sapiens, 0.1 nM to 1 μM, read-out: EC50 of cell cycle arrest in G2M phase; for EC50 / percentage of sub-G1 phase: PC-3, 24 h; for percentage of PC-3 cells in G2M phase: 24 h. The procedure:
Cell cycle distribution was determined by propidium iodide (PI) staining. Treated cells were washed with PBS and fixed with 70% ice-cold ethanol overnight. Fixed cells were then stained with 20 μg/mL of PI in the presence of RNase A (300 μg/mL) at 37° C. for 30 min. Cell cycle distribution was analyzed by fluorescence-activated cell sorting (FACS).

For a further series, the system named is HT-29. Nature of the series: Growth inhibition assay (SRB, 96 h). The format is cell-based. As to conditions: Homo sapiens, HT-29, 96 h. An excerpt:
(§1) MTT (3-(4,5-dimethylthiazol-2-yl)-2,5-diphenyltetrazolium bromide) assay was also used for the leukemia cell lines. […] Cells were stained with SRB solution or MTT solution.

For another series, the system named is MCF-7. The experiment in a line: Growth inhibition assay (SRB, 96 h). The format is cell-based. As to conditions: Homo sapiens, MCF7; MCF-7, 96 h.
Source text: as §1

A further series concerns TSU-Pr1. Nature of the series: Growth inhibition assay (SRB, 96 h). As to conditions: Homo sapiens, TSU-Pr1, 96 h. The series is classed as cell-based.
Source text: as §1

The test system of a further series is PC-12 cells. The experiment in a line: PC-12 cell growth inhibition (SRB). The series is classed as cell-based.
Source text: as §1

A further series is described as follows: Rotarod performance. The format is in vivo, ICR mice. The procedure: The training and rotarod test was conducted as described previously. Briefly, during the training phase for 2 consecutive days (3 trials/day), mice (10 mice/group) were trained to run in a rotarod apparatus without falling at a constant speed (12 rpm) for a maximum of 2 min. For the rotarod performance test, duration of each trial was less than 5 min. […] Tests were performed for 2 weeks (2 days/week). The animals were tested in three trials per day with an intertrial interval of 30 min. Animal performance was recorded as the average elapsed time for the mice to fall off.
On the technique in general: In the rotarod test animals must keep their balance on a rotating rod.

The subject of a further series is T1, tubulin.
T1 construct: IC50 of microtubule formation (tubulin polymerization); other: cell free, turbidity 340 nm, 40 min
Nature of the series: In vitro tubulin polymerization assay. The series is classed as biochemical, bovine. As to conditions: cell free, turbidity 340 nm, 40 min; read-out: IC50 of microtubule formation (tubulin polymerization). The procedure: Tubulin polymerization kits (Cytoskeleton, Denver, Colo.) were used to study tubulin depolymerization. The reaction contained 50 μL of 4 mg/mL tubulin in PEM buffer (80 mM PIPES, pH 7.0, 0.5 mM EGTA, 2 mM MgCl2, 1 mM GTP, 10% glycerol). The procedure was done according to the manufacturer's protocol. Tubulin polymerization was monitored in a UV spectrophotometer for 40 minutes at 340 nm at 37° C.

In another series the test system is TSU. Nature of the series: Cell viability SRB assay, 96 h. The series is classed as cell-based. The conditions noted are these: Homo sapiens, TSU (TSU-Pr1). An outline of the steps:
(§2)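 Cells seeded at 800-5,000 cells/well in medium with 10% FBS, treated in quadruplicate with compound at 0 to 100 μM (DMSO <0.5% v/v) against vehicle controls. Incubated 96 hour at 37° C, 5% CO2, then stained with sulforhodamine B to quantitate viability.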

For a further series, the system named is PPC-1. Nature of the series: Cell viability SRB assay, 96 h. The series is classed as cell-based. As to conditions: Homo sapiens, PPC-1, 96 h. An outline of the steps:
as §2
(In general: In SRB staining, fixed cells bind dye roughly in proportion to their protein.)

A further series concerns PC-3. Nature of the series: Cell viability SRB assay, 96 h. The series is classed as cell-based. As to conditions: Homo sapiens, PC-3, 96 h. The procedure, abridged:
as §2

In the next series the test system is LNCaP. Nature of the series: Cell viability SRB assay, 96 h. The series is classed as cell-based. The conditions noted are these: Homo sapiens. The procedure, abridged: as §2
Another series relates to DU-145. The experiment in a line: Cell viability SRB assay, 96 h. The series is classed as cell-based. The conditions noted are these: Homo sapiens, DU-145, 96 h. An outline of the steps:
as §2

The subject of the next series is LNCaP cells. The experiment in a line: Cell cycle distribution (PI staining, FACS). The format is cell-based, human. The conditions noted are these: LNCaP cells, 0, 50, 100 and 200 nM, 24 h. The procedure: LNCaP cells were treated with 0, 50, 100 and 200 nM of compound 13 for 24 h (FIG. 11A). Cells were then harvested and fixed with 70% ethanol. Cell cycle distribution was determined by propidium iodide (P1) staining and analyzed by fluorescence-activated cell sorting (FACS) analysis.

The term EC50 denotes the concentration needed to bring the measured effect to its halfway point. A word on the IC50: it is the midpoint of a concentration-inhibition curve. With `CC[C@]1(O)C[C@@H]2CN(CCc3c([nH]c4ccccc34)[C@@](C(=O)OC)(c3cc4c(cc3OC)N(C)[C@H]3[C@@](O)(C(=O)OC)[C@H](OC(C)=O)[C@]5(CC)C=CCN6CC[C@]43[C@@H]65)C2)C1` [Vinblastine], the “concentration that induced phosphorylation (Ser70) of Bcl-2” value in the series on Bcl-2 was determined as […]. For the same molecule, the EC50 in the series with PC-3 cells is 7 nM. The IC50 with HT-29 turned out to be 2.4 ± 0.2 nM; in the series with MCF-7, 1.4 ± 0.4 nM; in the series with TSU-Pr1 it was 1.6 ± 0.1 nM; in the series on tubulin, […]. Also, the “IC70 value in PC-12 cell growth inhibition” value in the series with PC-12 cells is […]. Moreover, the rotarod performance entry in “Rotarod performance” (0.5 mg/kg i.p. q2d, day 4 to day 14) was “impaired performance”. Also, the “mean time on the rotating rod” value in “Rotarod performance” (0.5 mg/kg i.p. q2d, end of 2 weeks (vehicle 151 s)) is recorded as 121 s.
Consider `COc1cc(C(=O)c2cccc(-c3cc4ccccc4[nH]3)c2)cc(OC)c1OC` [Compound 68, [3-(1H-Indol-2-yl)-phenyl]-(3,4,5-trimethoxy-phenyl)-methanone], for which the “concentration that induced phosphorylation (Ser70) of Bcl-2” value in the series with Bcl-2 turned out to be 50 nM. Also, the “percentage of PC-3 cells in G2M phase” value in the series with PC-3 cells (10 nM (control 19)) was determined as 24%; with PC-3 cells (50 nM (control 19)), 63%; in the series with PC-3 cells (100 nM (control 19)), 77%. Further, in the series with PC-3 cells, the EC50 came to 34 nM. The “percentage of sub-G1 phase” value in the series on PC-3 cells (10 nM (control 0.2)) was found to be 0.5%; in the series on PC-3 cells (50 nM (control 0.2)), 0.7%; in the series on PC-3 cells (100 nM (control 0.2)), 1.3%. Besides, the 50% inhibitory concentration (IC50) in the series with HT-29 is 15.1 ± 1.3 nM; in the series on MCF-7 it was 39.2 ± 2.9 nM; in the series with TSU-Pr1, 17.6 ± 2.1 nM; in the series with TSU, 18 ± 2.1 nM; in the series with PPC-1, 19 ± 1.5 nM; in the series on PC-3, 28 ± 2 nM. Besides, the IC50 with LNCaP was found to be 13 ± 3.5 nM; with DU-145 it was 23 ± 4.1 nM; in the series with tubulin, 381 nM. Further, in the series on PC-12 cells, the “IC70 value in PC-12 cell growth inhibition” value turned out to be 50 nM. Further, the rotarod performance entry in “Rotarod performance” (10 mg/kg i.p. q2d, 2 weeks, vs vehicle control) was “did not show impaired rotarod performance; also recorded: no loss of function”.
Turning to `O=C(c1cccc(-c2cc3ccccc3[nH]2)c1)c1cc2ccccc2[nH]1` [Compound 13, (1H-indol-2-yl)-[3-(1H-indol-2-yl)phenyl]methanone], the IC50 is 33.8 ± 1.8 nM in the series with TSU; 67.3 ± 1.1 nM in the series with PPC-1; 81.1 ± 9.6 nM in the series with PC-3; 442 ± 2.4 nM in the series on LNCaP; 138 ± 12.6 nM with DU-145. Moreover, in the series with LNCaP cells, the cell cycle arrest result was “induces G2/M phase arrest”.
